From US20230265116A1, “DEGRADATION OF (EGFR) BY CONJUGATION OF EGFR INHIBITORS WITH E3 LIGASE LIGAND AND METHODS OF USE” (BEIGENE, LTD., priority 2020, published 2023)
Like-named read-outs stand apart in the source and are kept apart here.

Legend:
[1] = test system: EGFR Del19/T790M/C797S (H1975-clone #28); experiment: EGFR degradation HTRF assay, H1975-clone #28 DTC cells; type: cell-based
Method in brief: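 Cells were dosed on day 2 with an 8-point, 5-fold dilution series starting at 10 uM final and incubated 16h at 37° C. After lysis for 1 hour, HTRF antibodies were added overnight at room temperature and the plate was read at 665/620 nm. Degradation was normalised to DMSO wells and fitted for DC50 and Dmax.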

[2] = molecular target: T1, EGFR L858R/T790M/C797S (BaF3-LTC cells) (Homo sapiens, UniProt P00533, C797S/L858R/T790M); experiment: EGFR degradation HTRF assay, BaF3-LTC cells; type: cell-based; conditions: BaF3-LTC cells; for DC50: EGFR degradation, IC50 (DC50) from curve fit, read-out: DC50(nM) BaF3-LTC; for Dmax: read-out: Dmax (%) BaF3-LTC
T1 construct: expressed in transfected cells; host or cells: BaF3
Method in brief: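 Cells treated 16 h at 37 °C, 5% CO2 in medium with 0.2% DMSO; top final concentration 10 uM, 5-fold dilution, 8 doses. Lysates read by HTRF (665/620 nm); degradation % versus DMSO high control, DC50 from four-parameter fit, Dmax as maximal degradation.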

[3] = H1975 # 28 DTC cells; EGFR degradation, IC50 (DC50) from curve fit; read-out: DC50(nM) H1975 # 28 DTC
[4] = H1975 # 28 DTC cells; maximum percentage of inhibition (degradation)
[5] = maximum percentage of inhibition (degradation)

T1 sequence (P00533 25-1210 T790M/C797S/L858R): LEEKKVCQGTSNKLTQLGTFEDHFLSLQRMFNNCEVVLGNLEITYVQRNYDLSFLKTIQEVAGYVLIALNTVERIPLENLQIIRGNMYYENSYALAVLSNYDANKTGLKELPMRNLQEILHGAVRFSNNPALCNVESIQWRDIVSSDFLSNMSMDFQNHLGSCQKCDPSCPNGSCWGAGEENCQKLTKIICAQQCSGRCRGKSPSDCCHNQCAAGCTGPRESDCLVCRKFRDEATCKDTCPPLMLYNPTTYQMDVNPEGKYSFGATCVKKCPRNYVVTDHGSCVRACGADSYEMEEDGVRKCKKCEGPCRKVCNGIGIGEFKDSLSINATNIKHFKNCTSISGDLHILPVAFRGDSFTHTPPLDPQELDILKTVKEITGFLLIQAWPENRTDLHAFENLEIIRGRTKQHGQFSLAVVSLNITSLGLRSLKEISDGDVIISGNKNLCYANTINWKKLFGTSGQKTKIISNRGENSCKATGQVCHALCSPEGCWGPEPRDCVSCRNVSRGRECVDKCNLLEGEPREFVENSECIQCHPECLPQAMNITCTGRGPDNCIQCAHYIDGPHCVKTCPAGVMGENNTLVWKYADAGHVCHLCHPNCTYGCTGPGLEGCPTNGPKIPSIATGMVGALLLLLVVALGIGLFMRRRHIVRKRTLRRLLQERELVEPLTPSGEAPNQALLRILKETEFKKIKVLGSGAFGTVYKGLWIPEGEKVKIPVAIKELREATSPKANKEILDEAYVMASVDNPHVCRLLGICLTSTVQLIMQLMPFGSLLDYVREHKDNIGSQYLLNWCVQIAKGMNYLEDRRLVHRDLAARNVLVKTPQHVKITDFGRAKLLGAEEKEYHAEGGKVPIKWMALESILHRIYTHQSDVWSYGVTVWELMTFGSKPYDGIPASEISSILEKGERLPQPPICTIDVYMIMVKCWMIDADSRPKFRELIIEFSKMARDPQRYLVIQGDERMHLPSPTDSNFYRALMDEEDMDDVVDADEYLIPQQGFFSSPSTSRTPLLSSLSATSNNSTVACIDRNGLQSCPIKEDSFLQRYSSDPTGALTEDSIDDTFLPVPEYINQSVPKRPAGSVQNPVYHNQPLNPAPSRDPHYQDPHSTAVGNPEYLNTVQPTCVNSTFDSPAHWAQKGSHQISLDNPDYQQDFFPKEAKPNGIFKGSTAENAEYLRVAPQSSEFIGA

Row | Compound | DC50 [1, 3] | Dmax (%) H1975 # 28 DTC [1, 4] | DC50 [2] | Dmax [2, 5] | DC50 ([1]; read-out: DC50(nM) H1975 # 28 DTC; H1975 # 28 DTC cells; EGFR degradation, IC50 (DC50) from curve fit) | Dmax (%) BaF3-LTC [2, 5]
1 | CCOc1cc(N2CCC(N3CCN(CCOCCc4cccc5c4oc(=O)n5C4CCC(=O)NC4=O)CC3)CC2)c(CC)cc1Nc1ncc(Br)c(Nc2ccc3nc(CC)ccc3c2P(C)(C)=O)n1 (stereo not drawn) [Example 619, 3-(7-(2-(2-(4-(1-(4-((5-bromo-4-((5-(dimethylphosphoryl)-2-ethylquinolin-6-yl)amino)pyrimidin-2-yl)amino)-5-ethoxy-2-ethylphenyl)piperidin-4-yl)piperazin-1-yl)ethoxy)ethyl)-2-oxobenzod[d]oxazol-3(2H)-yl)piperidine-2,6-dione] | 0.91 nM | 62.88% | 11.2 nM | 92.1% | – | –
2 | CCOc1cc(N2CCC(N3CCN(CC4CN(c5cccc6c5oc(=O)n6C5CCC(=O)NC5=O)C4)CC3)CC2)c(CC)cc1Nc1ncc(Br)c(Nc2ccc3nc(CC)ncc3c2P(C)(C)=O)n1 (stereo not drawn) [Example 566, 3-(7-(3-((4-(1-(4-((5-bromo-4-((5-(dimethylphosphoryl)-2-ethylquinazolin-6-yl)amino)pyrimidin-2-yl)amino)-5-ethoxy-2-ethylphenyl)piperidin-4-yl)piperazin-1-yl)methyl)azetidin-1-yl)-2-oxobenzo[d]oxazol-3(2H)-yl)piperidine-2,6-dione] | – | 84.02% | 5.25 nM | – | 0.616 nM | –
3 | CCc1ccc2c(P(C)(C)=O)c(Nc3nc(Nc4cc(CC)c(N5CCC(N6CCN(CCc7cccc8c7n(C7CC7)c(=O)n8C7CCC(=O)NC7=O)CC6)CC5)cc4OC)ncc3Br)ccc2n1 (stereo not drawn) [Example 454, 3-(4-(2-(4-(1-(4-((5-bromo-4-((5-(dimethylphosphoryl)-2-ethylquinolin-6-yl)amino)pyrimidin-2-yl)amino)-2-ethyl-5-methoxyphenyl)piperidin-4-yl)piperazin-1-yl)ethyl)-3-cyclopropyl-2-oxo-2,3-dihydro-1H-benzo[d]imidazol-1-yl)piperidine-2,6-dione] | 0.735 nM | 78.41% | 5.13 nM | 92.3% | – | –
4 | CCc1ccc2c(P(C)(C)=O)c(Nc3nc(Nc4cc(CC)c(N5CCC(N6CCC(CCc7cc(F)c(C8CCC(=O)NC8=O)c(F)c7)CC6)CC5)cc4OC)ncc3Br)ccc2n1 (stereo not drawn) [Example 583, 3-(4-(2-(1′-(4-((5-bromo-4-((5-(dimethylphosphoryl)-2-ethylquinolin-6-yl)amino)pyrimidin-2-yl)amino)-2-ethyl-5-methoxyphenyl)-[1,4′-bipiperidin]-4-yl)ethyl)-2,6-difluorophenyl)piperidine-2,6-dione] | 2.7 nM | 76.91% | 17 nM | 92.9% | – | –
5 | CCc1cc(Nc2ncc(Br)c(Nc3ccc4c(=O)n(CC)ncc4c3P(C)(C)=O)n2)c(OC)cc1N1CCC(N2CCN(C(=O)[C@@H]3CCN(c4cc(F)c([C@H]5CCC(=O)NC5=O)c(F)c4)C3)CC2)CC1 [Example 673, (R)-3-(4-((R)-3-(4-(1-(4-((5-bromo-4-((5-(dimethylphosphoryl)-2-ethyl-1-oxo-1,2-dihydrophthalazin-6-yl)amino)pyrimidin-2-yl)amino)-2-ethyl-5-methoxyphenyl)piperidin-4-yl)piperazine-1-carbonyl)pyrrolidin-1-yl)-2,6-difluorophenyl)piperidine-2,6-dione] | 0.677 nM | 85.2% | 5.79 nM | 93.3% | – | –
6 | CCc1cc(Nc2ncc(Br)c(Nc3ccc4nc(C)sc4c3P(C)(C)=O)n2)c(OC)cc1N1CCC(N2CCN(C(=O)[C@@H]3CCN(c4cc(F)c([C@H]5CCC(=O)NC5=O)c(F)c4)C3)CC2)CC1 [Example 685, (R)-3-(4-((R)-3-(4-(1-(4-((5-bromo-4-((7-(dimethylphosphoryl)-2-methylbenzo[d]thiazol-6-yl)amino)pyrimidin-2-yl)amino)-2-ethyl-5-methoxyphenyl)piperidin-4-yl)piperazine-1-carbonyl)pyrrolidin-1-yl)-2,6-difluorophenyl)piperidine-2,6-dione] | 0.787 nM | 83.23% | 5.29 nM | 95% | – | –
7 | CCOc1cc(N2CCC(N3CCN(CC4CN(c5cccc6c5oc(=O)n6C5CCC(=O)NC5=O)C4)CC3)CC2)c(CC)cc1Nc1ncc(Br)c(Nc2ccc3c(=O)n(CC)ncc3c2P(C)(C)=O)n1 (stereo not drawn) [Example 645, 3-(7-(3-((4-(1-(4-((5-bromo-4-((5-(dimethylphosphoryl)-2-ethyl-1-oxo-1,2-dihydrophthalazin-6-yl)amino)pyrimidin-2-yl)amino)-5-ethoxy-2-ethylphenyl)piperidin-4-yl)piperazin-1-yl)methyl)azetidin-1-yl)-2-oxobenzo[d]oxazol-3(2H)-yl)piperidine-2,6-dione] | 6.2 nM | 84.26% | 22.7 nM | 95.8% | – | –
8 | CCc1cc(Nc2ncc(C(F)(F)F)c(Nc3ccc4nc(C)ccc4c3P(C)(C)=O)n2)c(OC)cc1N1CCC(N2CCN(CCc3cc(F)c(C4CCC(=O)NC4=O)c(F)c3)CC2)CC1 (stereo not drawn) [Example 689, 3-(4-(2-(4-(1-(4-((4-((5-(dimethylphosphoryl)-2-methylquinolin-6-yl)amino)-5-(trifluoromethyl)pyrimidin-2-yl)amino)-2-ethyl-5-methoxyphenyl)piperidin-4-yl)piperazin-1-yl)ethyl)-2,6-difluorophenyl)piperidine-2,6-dione] | 3.03 nM | 72.37% | 15.4 nM | 85.1% | – | –
9 | CCOc1cc(N2CCC(N3CCN(CCc4c(F)ccc5c4n(CC)c(=O)n5C4CCC(=O)NC4=O)CC3)CC2)c(CC)cc1Nc1ncc(Br)c(Nc2ccc3c(=O)n(CC)ncc3c2P(C)(C)=O)n1 (stereo not drawn) [Example 596, 3-(4-(2-(4-(1-(4-((5-bromo-4-((5-(dimethylphosphoryl)-2-ethyl-1-oxo-1,2-dihydrophthalazin-6-yl)amino)pyrimidin-2-yl)amino)-5-ethoxy-2-ethylphenyl)piperidin-4-yl)piperazin-1-yl)ethyl)-3-ethyl-5-fluoro-2-oxo-2,3-dihydro-1H-benzo[d]imidazol-1-yl)piperidine-2,6-dione] | 0.937 nM | 84.17% | 6.56 nM | – | – | 91.42%
10 | CCOc1cc(N2CCC(N3CCN(CCC4CCN(c5cc(F)cc6c5oc(=O)n6C5CCC(=O)NC5=O)CC4)CC3)CC2)c(CC)cc1Nc1ncc(Br)c(Nc2ccc3nc(CC)ccc3c2P(C)(C)=O)n1 (stereo not drawn) [Example 556, 3-(7-(4-(2-(4-(1-(4-((5-bromo-4-((5-(dimethylphosphoryl)-2-ethylquinolin-6-yl)amino)pyrimidin-2-yl)amino)-5-ethoxy-2-ethylphenyl)piperidin-4-yl)piperazin-1-yl)ethyl)piperidin-1-yl)-5-fluoro-2-oxobenzo[d]oxazol-3(2H)-yl)piperidine-2,6-dione] | 4.03 nM | 98.64% | 14.8 nM | 92.2% | – | –
11 | CCc1cc(Nc2ncc(Br)c(Nc3ccc4nc(C)ccc4c3P(C)(C)=O)n2)c(OC)cc1N1CCC(N2CCN(CCC3CCN(c4cc(F)c(C5CCC(=O)NC5=O)c(F)c4)CC3)C(=O)C2)CC1 (stereo not drawn) [Example 695, 3-(4-(4-(2-(4-(1-(4-((5-bromo-4-((5-(dimethylphosphoryl)-2-methylquinolin-6-yl)amino)pyrimidin-2-yl)amino)-2-ethyl-5-methoxyphenyl)piperidin-4-yl)-2-oxopiperazin-1-yl)ethyl)piperidin-1-yl)-2,6-difluorophenyl)piperidine-2,6-dione] | 3.06 nM | 68.81% | 12.7 nM | 93.5% | – | –
12 | CCOc1cc(N2CCC(N3CCN(CCc4cc5oc(=O)n(C6CCC(=O)NC6=O)c5cc4Cl)CC3)CC2)c(CC)cc1Nc1ncc(Br)c(Nc2ccc3nc(CC)ccc3c2P(C)(C)=O)n1 (stereo not drawn) [Example 627, 3-(6-(2-(4-(1-(4-((5-bromo-4-((5-(dimethylphosphoryl)-2-ethylquinolin-6-yl)amino)pyrimidin-2-yl)amino)-5-ethoxy-2-ethylphenyl)piperidin-4-yl)piperazin-1-yl)ethyl)-5-chloro-2-oxobenzo[d]oxazol-3(2H)-yl)piperidine-2,6-dione] | 1.23 nM | 76.26% | 9.13 nM | 94.5% | – | –
13 | CCc1cc(Nc2ncc(Br)c(Nc3ccc4nc(C)ccc4c3P(C)(C)=O)n2)c(OC)cc1N1CCC(N2CCN(C(=O)[C@H]3CC[C@@H](Oc4cc(F)c(C5CCC(=O)NC5=O)c(F)c4)CC3)CC2)CC1 (stereo partly drawn) [Example 681, 3-(4-(((1s,4s)-4-(4-(1-(4-((5-bromo-4-((5-(dimethylphosphoryl)-2-methylquinolin-6-yl)amino)pyrimidin-2-yl)amino)-2-ethyl-5-methoxyphenyl)piperidin-4-yl)piperazine-1-carbonyl)cyclohexyl)oxy)-2,6-difluorophenyl)piperidine-2,6-dione] | 1.37 nM | 77.05% | 4.65 nM | 96% | – | –
